Measurements as given in US9115143B2, “Substituted indole derivatives as gamma secretase modulators” (Janssen Pharmaceuticals, Inc., priority 2011, dated 2015).

Columns and labels:
Aβ38 = assay: In vivo efficacy B-2a: brain soluble Aβ38 in non-transgenic rodents, ELISA; design: species or system mouse; details: dose 30 mg/kg oral dosing, brain soluble fraction, untreated animals (Ctrl) set at 100; for Aβ38 (% vs Ctrl)_Mean: 30 mg/kg; for response vs control in vivo at 30 mg/kg: Mus musculus, po, read-out: Aβ38 (% vs Ctrl)_Mean
Description: Aβ38 increasing agents can be administered in any standard form using any standard method. For example, but not limited to, Aβ38 increasing agents can be in the form of liquid, tablets or capsules that are taken orally or by injection.
(§1) To determine whether acute administration of an Aβ38 increasing agents would increase Aβ38 levels in vivo, non-transgenic rodents, e.g. mice or rats were used. Animals treated with the Aβ38 increasing agents were examined and compared to those untreated or treated with vehicle and brain levels of soluble Aβ38 and total Aβ were quantitated by standard techniques, for example, using ELISA. Treatment periods varied from hours (h) to days and were adjusted based on the results of the Aβ38 increase once a time course of onset of effect could be established.
(§2) A typical protocol for measuring Aβ38 increase in vivo is shown but it is only one of many variations that could be used to optimize the levels of detectable Aβ. For example, Aβ38 increasing agents were formulated in 20% of Captisol® (a sulfobutyl ether of β-cyclodextrin) in water or 20% hydroxypropyl β cyclodextrin. The Aβ38 increasing agents were administered as a single oral dose or by any acceptable route of administration to overnight fasted animals. After 4 h, the animals were sacrificed and Aβ38 levels were analysed.
(§3) Blood was collected by decapitation and exsanguinations in EDTA-treated collection tubes. Blood was centrifuged at 1900 g for 10 minutes (min) at 4° C. and the plasma recovered and flash frozen for later analysis. The brain was removed from the cranium and hindbrain. The cerebellum was removed and the left and right hemisphere were separated. The left hemisphere was stored at −18° C. for quantitative analysis of test compound levels. The right hemisphere was rinsed with phosphate-buffered saline (PBS) buffer and immediately frozen on dry ice and stored at −80° C. until homogenization for biochemical assays.
(§4) Mouse brains from non-transgenic animals were resuspended in 8 volumes of 0.4% DEA (diethylamine)/50 mM NaCl containing protease inhibitors (Roche-11873580001 or 04693159001) per gram of tissue, e.g. for 0.158 g brain, add 1.264 mL of 0.4% DEA. All samples were homogenized in the FastPrep-24 system (MP Biomedicals) using lysing matrix D (MPBio #6913-100) at 6 m/s for 20 seconds. Homogenates were centrifuged at 20800×g for 5 min and supernatants collected. Supernatants were centrifuged at 221.300×g for 50 min. The resulting high speed supernatants were then transferred to fresh eppendorf tubes. Nine parts of supernatant were neutralized with 1 part 0.5 M Tris-HCl pH 6.8 and used to quantify Aβtotal and Aβ38.
To quantify the amount of Aβtotal and Aβ38 in the soluble fraction of the brain homogenates, Enzyme-Linked-Immunosorbent-Assays were used. Briefly, the standards (a dilution of synthetic Aβ1-40 and Aβ1-38, ANASPEC) were prepared in 1.5 mL Eppendorf tube in Ultraculture, with final concentrations ranging from 10000 to 0.3 pg/mL. The samples and standards were co-incubated with HRPO-labelled N-terminal antibody for Aβ38 detection and with the biotinylated mid-domain antibody 4G8 for Aβtotal detection. 50 μl of conjugate/sample or conjugate/standards mixtures were then added to the antibody-coated plate (the capture antibodies selectively recognize the C-terminal end of Aβ38, antibody J&JPRD/Aβ38/5, for Aβ38 detection and the N-terminus of Aβ, antibody JRF/rAβ/2, for Aβtotal detection). The plate was allowed to incubate overnight at 4° C. in order to allow formation of the antibody-amyloid complex. Following this incubation and subsequent wash steps the ELISA for Aβ38 quantification was finished by addition of Quanta Blu fluorogenic peroxidase substrate according to the manufacturer's instructions (Pierce Corp., Rockford, Ill.). A reading was performed after 10 to 15 min (excitation 320 nm/emission 420 nm). […]

Aβ42 = assay: In vivo efficacy B-1a: brain soluble Aβ42 in non-transgenic rodents, ELISA; design: species or system mouse; details: dose 30 mg/kg oral dosing, brain soluble fraction, untreated animals (Ctrl) set at 100; for Aβ42 (% vs Ctrl)_Mean: 30 mg/kg; for response vs control in vivo at 30 mg/kg: Mus musculus, po, read-out: Aβ42 (% vs Ctrl)_Mean
Description: as §1, with “Aβ42 lowering agent” for “Aβ38 increasing agents”, “reduce Aβ42” for “increase Aβ38”, “Aβ42” for “Aβ38”, “Aβ42 lowering” for “Aβ38 increase”
as §2, with “measuring Aβ42 lowering” for “measuring Aβ38 increase”, “example, Aβ42 lowering compounds” for “example, Aβ38 increasing agents”, “The Aβ42 lowering” for “The Aβ38 increasing”, “and Aβ42” for “and Aβ38”
as §3
as §4, with “Aβ42.” for “Aβ38.”
To quantify the amount of Aβtotal and Aβ42 in the soluble fraction of the brain homogenates, Enzyme-Linked-Immunosorbent-Assays were used. Briefly, the standards (a dilution of synthetic Aβ1-40 and Aβ1-42, Bachem) were prepared in 1.5 mL Eppendorf tube in Ultraculture, with final concentrations ranging from 10000 to 0.3 pg/mL. The samples and standards were co-incubated with HRPO-labelled N-terminal antibody JRF/rAμ/2 for Aβ42 detection and with the biotinylated mid-domain antibody 4G8 for Aβtotal detection. 50 μl of conjugate/sample or conjugate/standards mixtures were then added to the antibody-coated plate (the capture antibodies selectively recognize the C-terminal end of Aβ42, antibody JRF/cAβ42/26, for Aβ42 detection and the N-terminus of AB, antibody JRF/rAβ/2, for Aβtotal detection). The plate was allowed to incubate overnight at 4° C. in order to allow formation of the antibody-amyloid complex. Following this incubation and subsequent wash steps the ELISA for Aβ42 quantification was finished by addition of Quanta Blu fluorogenic peroxidase substrate according to the manufacturer's instructions (Pierce Corp., Rockford, Ill.). A reading was performed after 10 to 15 min (excitation 320 nm/emission 420 nm).
In this model a Aβ42 lowering compared to untreated animals would be advantageous, in particular a Aβ42 lowering with at least 10%, more in particular a Aβ42 lowering with at least 20%.
The results are shown in Table 4 (dose 30 mg/kg oral dosing) (value for untreated animals as control (Ctrl) was set at 100): […]

SMILES | Aβ38 (% vs Ctrl)_Mean (Aβ38) | Aβ42 (% vs Ctrl)_Mean (Aβ42) | response vs control in vivo at 30 mg/kg (Aβ38) | response vs control in vivo at 30 mg/kg (Aβ42)
COc1c(C#N)ccc2[nH]c(-c3nc4n(n3)CCOC4c3ccc(F)cc3C)cc12 (centres unmarked) [Compound 114, 2-[8-(4-fluoro-2-methylphenyl)-5,6-dihydro-8H-[1,2,4]triazolo[5,1-c][1,4]oxazin-2-yl]-4-methoxy-1H-indole-5-carbonitrile] | 88 % vs Ctrl | 95 % vs Ctrl |  | 
Cc1cn(-c2ccc3[nH]c(-c4nc5n(n4)CCCC5c4ccc(F)cc4C)cc3c2)cn1 (centres unmarked) [Compound 73, 8-(4-fluoro-2-methylphenyl)-5,6,7,8-tetrahydro-2-[5-(4-methyl-1H-imidazol-1-yl)-1H-indol-2-yl]-[1,2,4]triazolo[1,5-a]pyridine] |  |  | 120% | 43%
Cc1cc(-c2ccc3[nH]c(-c4nc5n(n4)CCCC5c4ccccc4C)cc3n2)ccn1 (centres unmarked) [Compound 6, 5,6,7,8-tetrahydro-8-(2-methylphenyl)-2-[5-(2-methyl-4-pyridinyl)-1H-pyrrolo[3,2-b]pyridin-2-yl]-[1,2,4]triazolo[1,5-a]pyridine] |  |  | 78% | 79%
COc1c(C#N)ccc2[nH]c(-c3nc4n(n3)CCOC4c3ccc(F)cc3C)cc12 (centres unmarked) [Compound 111, 2-[8-(4-fluoro-2-methylphenyl)-5,6-dihydro-8H-[1,2,4]triazolo[5,1-c][1,4]oxazin-2-yl]-4-methoxy-1H-indole-5-carbonitrile] |  |  | 107% | 87%
Cc1cc(F)ccc1C1CCCn2nc(-c3cc4cc(C#N)ccc4[nH]3)nc21 (centres unmarked) [Compound 9, 2-[8-(4-fluoro-2-methylphenyl)-5,6,7,8-tetrahydro[1,2,4]triazolo[1,5-a]pyridin-2-yl]-1H-indole-5-carbonitrile] | 87 % vs Ctrl | 66 % vs Ctrl |  | 
COc1c(C#N)ccc2[nH]c(-c3cn4c(n3)C(c3ccc(F)cc3C)OCC4)cc12 (centres unmarked) [Compound 46, 2-[8-(4-fluoro-2-methylphenyl)-5,6-dihydro-8H-imidazo[2,1-c][1,4]oxazin-2-yl]-4-methoxy-1H-indole-5-carbonitrile] | 109 % vs Ctrl |  |  | 52%
Cc1cc(F)ccc1C1OCCn2cc(-c3cc4nc(-c5cnn(C)c5)ccc4[nH]3)nc21 (single isomer, unassigned) [Compound 102, 8-(4-fluoro-2-methylphenyl)-5,6-dihydro-2-[5-(1-methyl-1H-pyrazol-4-yl)-1H-pyrrolo[3,2-b]pyridin-2-yl]-8H-imidazo[2,1-c][1,4]oxazine] |  |  | 82% | 98%
